The text below walks through data of patent publication US20210000912A1, “Compositions And Methods For Prophylaxis Or Treatment Of Pain” (Interk Peptide Therapeutics Limited, priority 2017, published 2021).

pIC50: −log10 of the molar value. Like-named read-outs stand apart in the source and are kept apart here. Non-standard residues stand in square brackets, D forms with d. Residues, ends and D or L forms follow the SMILES beside them. No end group written: not given here. Orn = NCCC[C@H](N)C(=O)O

What all share (type): biochemical
One experiment addresses T1, c-Src (h) (Homo sapiens, UniProt P12931).
T1 construct: purchased Eurofins Pharma Discovery Services UK Ltd (contract assay service)
Put plainly: c-Src kinase activity assay, cell free. As to the method:
(§1) The capacity of test peptides to inhibit the activity of the kinases PKG1α, PKG1β, and Src family kinases in a cell free assay was assessed. The test peptides were amidated at their C-terminal end (indicated by “—NH2”) unless otherwise noted. Kinase activity assays were conducted by Eurofins Pharma Discovery Services UK Ltd (Dundee Technology Park, Dundee, United Kingdom) and Reaction Biology Corp. (Malvern, Pa., USA).
(§2) All test peptides are prepared to 50× final assay concentration in 100% DMSO. This working stock of the test compound is added to assay wells as the first component in the reaction, followed by the remaining components of the respective assay protocols described below. There is no pre-incubation step between the test peptide and the kinase prior to initiation of the reaction. The kinases are diluted in buffer (20 mM MOPS, 1 mM EDTA, 0.01% Brij-35, 5% Glycerol, 0.1% β-mercaptoethanol, 1 mg/mL BSA) prior to addition to the reaction mix.
(§3) Positive control wells contain all components of the reaction, except the test peptide of interest. However, DMSO (at a final concentration of 2%) is included in positive control wells to control for solvent effects. Negative control wells contain all components of the reaction, with a reference inhibitor (staurosporine) replacing the test peptide. This abolishes kinase activity and establishes a base-line (0% kinase activity). Kinase assay protocols (Eurofins Pharma Discovery Services UK Ltd, Dundee Technology Park, Dundee, United Kingdom) are described below. Of the Src family kinases, only the assay protocol for c-Src is shown.
c-Src (h) is incubated with 8 mM MOPS pH 7.0, 0.2 mM EDTA, 250 μM KVEKIGEGTYGVVYK (Cdc2 peptide), 10 mM MgAcetate and [γ-^33P]-ATP (specific activity approx. 500 cpm/pmol, concentration as required). The reaction is initiated by the addition of the MgATP mix. After incubation for 40 minutes at room temperature, the reaction is stopped by the addition of 3% phosphoric acid solution. A 10 μL aliquot of the reaction is then spotted onto a P30 filtermat and washed three times for 5 minutes in 75 mM phosphoric acid and once in methanol prior to drying and scintillation counting.

In the next experiment the target is T2, PKG1α (h) (Homo sapiens, UniProt Q13976).
T2 construct: purchased Eurofins Pharma Discovery Services UK Ltd (contract assay service)
T2 sequence (Q13976 1-671): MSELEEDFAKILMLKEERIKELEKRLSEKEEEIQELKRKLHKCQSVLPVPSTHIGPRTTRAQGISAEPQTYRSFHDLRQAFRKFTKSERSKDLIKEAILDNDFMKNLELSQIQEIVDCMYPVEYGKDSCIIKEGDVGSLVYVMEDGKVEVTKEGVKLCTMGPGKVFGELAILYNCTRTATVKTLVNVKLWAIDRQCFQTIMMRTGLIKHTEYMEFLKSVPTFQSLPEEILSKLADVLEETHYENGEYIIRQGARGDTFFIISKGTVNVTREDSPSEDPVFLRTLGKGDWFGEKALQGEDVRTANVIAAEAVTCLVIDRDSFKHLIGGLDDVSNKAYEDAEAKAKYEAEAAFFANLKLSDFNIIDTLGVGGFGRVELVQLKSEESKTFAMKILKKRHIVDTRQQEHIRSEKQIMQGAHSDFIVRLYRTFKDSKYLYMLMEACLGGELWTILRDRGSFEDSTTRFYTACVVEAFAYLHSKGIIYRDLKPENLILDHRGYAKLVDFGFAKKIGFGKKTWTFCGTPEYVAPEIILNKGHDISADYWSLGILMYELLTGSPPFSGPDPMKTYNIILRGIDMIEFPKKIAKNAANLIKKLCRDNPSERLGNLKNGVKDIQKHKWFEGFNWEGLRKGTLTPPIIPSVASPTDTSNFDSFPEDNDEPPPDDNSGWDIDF
Put plainly: PKG1α kinase activity assay, cell free. As to the method: as §1, §2, §3
PKG1α (h) is incubated with 8 mM MOPS pH 7.0, 0.2 mM EDTA, 10 μM cGMP, 200 μM peptide RRRLSFAEPG, 10 mM magnesium acetate and [γ-^33P]-ATP (specific activity approx. 500 cpm/pmol, concentration as required). The reaction is initiated by the addition of the MgATP mix. After incubation for 40 minutes at room temperature, the reaction is stopped by the addition of 3% phosphoric acid solution. A 10 μL aliquot of the reaction is then spotted onto a P30 filtermat and washed three times for 5 mins in 75 mM phosphoric acid and once in methanol prior to drying and scintillation counting.

A further experiment concerns the target T3, PKG1β (h) (Homo sapiens, UniProt Q13976).
T3 construct: purchased Eurofins Pharma Discovery Services UK Ltd (contract assay service)
T3 sequence (Q13976 1-686 isoform Q13976-2): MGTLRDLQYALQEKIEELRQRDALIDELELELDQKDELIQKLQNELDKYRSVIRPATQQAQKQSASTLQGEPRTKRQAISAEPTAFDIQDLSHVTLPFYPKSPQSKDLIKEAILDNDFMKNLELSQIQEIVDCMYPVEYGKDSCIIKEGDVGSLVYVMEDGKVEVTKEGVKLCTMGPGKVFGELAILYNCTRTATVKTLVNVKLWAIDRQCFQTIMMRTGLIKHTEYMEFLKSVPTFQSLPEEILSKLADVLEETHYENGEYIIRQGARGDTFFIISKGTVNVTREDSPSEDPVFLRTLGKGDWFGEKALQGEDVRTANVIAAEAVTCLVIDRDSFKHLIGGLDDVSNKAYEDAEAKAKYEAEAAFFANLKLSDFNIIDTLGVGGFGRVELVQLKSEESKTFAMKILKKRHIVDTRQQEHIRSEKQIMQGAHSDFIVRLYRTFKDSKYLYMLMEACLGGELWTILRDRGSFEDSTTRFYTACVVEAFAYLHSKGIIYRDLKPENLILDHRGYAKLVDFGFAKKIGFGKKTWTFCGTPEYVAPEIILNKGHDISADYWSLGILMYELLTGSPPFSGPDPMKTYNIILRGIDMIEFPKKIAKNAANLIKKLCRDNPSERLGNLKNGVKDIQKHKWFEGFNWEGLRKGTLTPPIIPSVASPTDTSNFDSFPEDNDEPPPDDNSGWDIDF
As to the kind of experiment: PKG1β kinase activity assay, cell free. As to the method: as §1, §2, §3
PKG1b(h) is incubated with 8 mM MOPS pH 7.0, 0.2 mM EDTA, 10 μM cGMP, 200 μM RRRLSFAEPG, 10 mM magnesium acetate and [γ-^33P]-ATP (specific activity approx. 500 cpm/pmol, concentration as required). The reaction is initiated by the addition of the MgATP mix. After incubation for 40 minutes at room temperature, the reaction is stopped by the addition of 3% phosphoric acid solution. A 10 μL aliquot of the reaction is then spotted onto a P30 filtermat and washed three times for 5 mins in 75 mM phosphoric acid and once in methanol prior to drying and scintillation counting.

The mark [1] stands for this setting: cell free, 40 minutes at room temperature, read-out: c-Src IC50.
Setting [2] is: cell free, 10 μM cGMP, 40 minutes at room temperature, read-out: PKG1α IC50.
The mark [3] stands for this setting: cell free, 10 μM cGMP, 40 minutes at room temperature, read-out: PKG1β IC50.

T1 sequence (P12931 whole entry): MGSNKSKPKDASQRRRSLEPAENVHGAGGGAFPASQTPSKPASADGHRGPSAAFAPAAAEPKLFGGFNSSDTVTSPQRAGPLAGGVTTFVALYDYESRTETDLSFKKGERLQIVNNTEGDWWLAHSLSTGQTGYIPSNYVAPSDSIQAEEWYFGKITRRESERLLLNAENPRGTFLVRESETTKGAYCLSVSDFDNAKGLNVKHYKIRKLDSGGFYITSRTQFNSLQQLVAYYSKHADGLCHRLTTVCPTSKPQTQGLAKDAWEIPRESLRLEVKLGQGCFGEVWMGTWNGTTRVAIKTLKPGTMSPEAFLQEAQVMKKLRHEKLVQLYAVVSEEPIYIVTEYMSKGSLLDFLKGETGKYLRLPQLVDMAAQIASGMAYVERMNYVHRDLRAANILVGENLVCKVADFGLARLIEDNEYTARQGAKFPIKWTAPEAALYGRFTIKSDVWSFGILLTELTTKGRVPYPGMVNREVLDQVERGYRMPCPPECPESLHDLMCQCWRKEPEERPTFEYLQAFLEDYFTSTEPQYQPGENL

As to `N=C(N)NCCC[C@H](NC(=O)[C@H](CCCNC(=N)N)NC(=O)[C@H](CCCNC(=N)N)NC(=O)[C@H](CCCNC(=N)N)NC(=O)[C@H](CCCNC(=N)N)NC(=O)[C@H](CCCNC(=N)N)NC(=O)[C@H](CCCNC(=N)N)NC(=O)[C@H](CCCNC(=N)N)NC(=O)[C@H](CCCNC(=N)N)NC(=O)[C@@H](N)CCCNC(=N)N)C(N)=O` [IK00100, RRRRRRRRRR-NH2], the results for the negative logarithm of the IC50 (pIC50) at c-Src (h) (setting [1]), on PKG1α (h) (setting [2]) and at PKG1β (h) (setting [3]) were 8.15, 7.80 and 8.05, respectively.

On to `N=C(N)NCCC[C@H](NC(=O)[C@H](CCCNC(=N)N)NC(=O)[C@H](CCCNC(=N)N)NC(=O)[C@H](CCCNC(=N)N)NC(=O)[C@H](CCCNC(=N)N)NC(=O)[C@H](CCCNC(=N)N)NC(=O)[C@H](CCCNC(=N)N)NC(=O)[C@H](CCCNC(=N)N)NC(=O)[C@H](CCCNC(=N)N)NC(=O)[C@H](CCCNC(=N)N)NC(=O)[C@H](CCCNC(=N)N)NC(=O)[C@H](CCCNC(=N)N)NC(=O)[C@H](CCCNC(=N)N)NC(=O)[C@@H](N)CCCNC(=N)N)C(=O)O` [IK0140H, RRRRRRRRRRRRRR], for which the figures for the negative logarithm of the IC50 (pIC50) against c-Src (h), on PKG1α (h) and against PKG1β (h) were under 6.00, 8.15 and 8.15, respectively.

For `N=C(N)NCCC[C@H](NC(=O)[C@H](CCCNC(=N)N)NC(=O)[C@H](CCCNC(=N)N)NC(=O)[C@H](CCCNC(=N)N)NC(=O)[C@H](CCCNC(=N)N)NC(=O)[C@@H](N)CCCNC(=N)N)C(N)=O` [IK00600, RRRRRR-NH2], the pIC50 at c-Src (h) (setting [1]) is 7.00; at PKG1α (h) (setting [2]), under 6.00; at PKG1β (h) (setting [3]), 6.34.

As to `N=C(N)NCCC[C@H](NC(=O)[C@H](CCCNC(=N)N)NC(=O)[C@H](CCCNC(=N)N)NC(=O)[C@H](CCCNC(=N)N)NC(=O)[C@H](CCCNC(=N)N)NC(=O)[C@H](CCCNC(=N)N)NC(=O)[C@H](CCCNC(=N)N)NC(=O)[C@@H](N)CCCNC(=N)N)C(N)=O` [IK00800, RRRRRRRR-NH2], the figures for the pIC50 at c-Src (h) (setting [1]), at PKG1α (h) (setting [2]) and on PKG1β (h) (setting [3]) were 7.59, 7.12 and 7.26, respectively.

Turning to `N=C(N)NCCC[C@H](NC(=O)[C@H](CCCNC(=N)N)NC(=O)[C@H](CCCNC(=N)N)NC(=O)[C@H](CCCNC(=N)N)NC(=O)[C@H](CCCNC(=N)N)NC(=O)[C@H](CCCNC(=N)N)NC(=O)[C@H](CCCNC(=N)N)NC(=O)[C@H](CCCNC(=N)N)NC(=O)[C@@H](N)CCCNC(=N)N)C(N)=O` [IK00900, RRRRRRRRR-NH2], the pIC50 on c-Src (h) (setting [1]) was 8.40; at PKG1α (h) (setting [2]), 7.47; on PKG1β (h) (setting [3]) it was 7.66.

Take `N=C(N)NCCC[C@H](NC(=O)[C@H](CCCNC(=N)N)NC(=O)[C@H](CCCNC(=N)N)NC(=O)[C@H](CCCNC(=N)N)NC(=O)[C@H](CCCNC(=N)N)NC(=O)[C@H](CCCNC(=N)N)NC(=O)[C@H](CCCNC(=N)N)NC(=O)[C@H](CCCNC(=N)N)NC(=O)[C@H](CCCNC(=N)N)NC(=O)[C@H](CCCNC(=N)N)NC(=O)[C@H](CCCNC(=N)N)NC(=O)[C@@H](N)CCCNC(=N)N)C(N)=O` [IK01200, RRRRRRRRRRRR-NH2]: the pIC50 on c-Src (h) is 8.22; against PKG1α (h) it was 8.10; on PKG1β (h), 8.15.

Take `NCCC[C@H](NC(=O)[C@H](CCCN)NC(=O)[C@H](CCCN)NC(=O)[C@H](CCCN)NC(=O)[C@H](CCCN)NC(=O)[C@H](CCCN)NC(=O)[C@H](CCCN)NC(=O)[C@H](CCCN)NC(=O)[C@H](CCCN)NC(=O)[C@@H](N)CCCN)C(N)=O` [IKNOR10, OrnOrnOrnOrnOrnOrnOrnOrnOrnOrn-NH2, reference compound] (H-[Orn][Orn][Orn][Orn][Orn][Orn][Orn][Orn][Orn][Orn]-NH2; N-terminus assumed): the results for the pIC50 at c-Src (h), at PKG1α (h) and against PKG1β (h) were 8.15, under 6.00 and under 6.00, respectively.

Take “HHHHHHHHHH-NH2 [IK00010, HHHHHHHHHH-NH2, reference compound]”: the negative-log IC50 (pIC50) at c-Src (h) (setting [1]), on PKG1α (h) (setting [2]) and at PKG1β (h) (setting [3]) was under 6.00 each time.

With “KKKKKKKKKK-NH2 [IK00K00, KKKKKKKKKK-NH2, reference compound]”, the pIC50 at c-Src (h) (setting [1]) is 7.02; on PKG1α (h) (setting [2]), under 6.00; at PKG1β (h) (setting [3]), under 6.00.

With “RRRRRRRRRRRRRRRR-NH2 [IK01600, RRRRRRRRRRRRRRRR-NH2]”, the pIC50 on c-Src (h) (setting [1]) was 8.40; at PKG1α (h) (setting [2]), 8.22; at PKG1β (h) (setting [3]), 8.40.

Take RRRRRRRRRRRRRRRRRRRR-NH2 [IK00200]: the pIC50 on PKG1α (h) (setting [2]) and on PKG1β (h) (setting [3]) was 8.22 throughout.
